# Reference: patent US20120015056A1, “COMPOSITION COMPRISING EXTRACTS OR FRACTIONS OF SPECIFIC PLANTS, USE THEREOF AND PROCESS FOR PREPARING THE EXTRACTS” (priority 2010, published 2012)
# Experiments:
# Type in all cases: cell-based
# [1] = system: MDA-MB-231 (breast cancer); assay: XTT assay, viability of MDA-MB-231 at 450 nm; design: key to value of [the treated group−the blank group], Mean value: absorbance at 450 nm, treated minus blank
# Procedure: (§1) Each of 5×10^3 breast cancer cells MDA-MB-231 and TTU-1 were seeded in a 96-well flat-bottomed microplate, and cultured in CO2 incubator. Cells were seeded in a 96-well tissue culture plate at a density of 10,000 cells for normal cells and 5,000 cells for cancer cells. DMEM plus 10% fetal bovine serum was used as a culture medium. At 24 hours after seeding, the extracts obtained in the Examples 1 to 3 were added to each well. At 12 hours after added the extracts, XTT solutions were added and then the cells were incubated for 2 hours. After that, absorbance value were measured using microplate spectrophotometer at a wavelength of 450 nm. In addition, Annexin-V/PI-stained MDA-MB-231 and TTU-1 cells were photographed and observed.
# (§2) In the following, the values for the composition of the invention indicate the mean value of values obtained using the extracts of the Examples 1 to 3.
# The following Table 4 and FIG. 9 show the value of [the treated group−the blank group] determined in cell line MDA-MB-231.
# HepG2 (liver cancer) = assay: MTT assay, viability of HepG2 at 500 nm; design: value of the treated group, Mean value: unit not given here
# Procedure: (§3) Similarly, MTT assay was performed for lung cancer cell line A549 and liver cancer cell line HepG2. But, MTT solutions were added instead of XTT solutions; as a culture medium, RPMI1640 with L-glutamine (300 mg/L), 25 mM HEPES and 25 mM NaHCO3 90% and heat-inactivated fetal bovine serum (FBS) 10% was used for A549, and minimum essential medium, 25 mM HEPES and 25 mM NaHCO3 90% and heat-inactivated fetal bovine serum (FBS) 10% was used for HepG2; and MTT values were measured at 1 d, 2 d, 3 d and 4 d, respectively.
# as §2
# The following Table 7 and FIG. 12 show the value of the treated group determined in cell line HepG2.
# A549 (lung cancer) = assay: MTT assay, viability of A549 at 500 nm; design: value of the treated group, Mean value: unit not given here
# Procedure: as §3, §2
# The following Table 6 and FIG. 11 show the value of the treated group determined in cell line A549.
# TTU-1 (breast cancer) = assay: XTT assay, viability of TTU-1 at 450 nm
# Procedure: as §1, with “[…] […]” for “At 24 hours after seeding, the extracts obtained in the Examples 1 to 3 were added to each well. At 12 hours after added the extracts, XTT solutions were added and then the cells were incubated for 2 hours.”
smiles,measurement,setting,value
CC(=O)O[C@H]1C(=O)[C@@]2(C)[C@H]([C@H](OC(=O)c3ccccc3)[C@]3(O)C[C@H](OC(=O)[C@H](O)[C@@H](NC(=O)c4ccccc4)c4ccccc4)C(C)=C1C3(C)C)[C@]1(OC(C)=O)CO[C@@H]1C[C@@H]2O [Taxol],course of the value as time goes by (FIG. 9),[1],increasing
same,"value of [the treated group−the blank group], Mean value","[1]; 1.2 × 10^−7M, 12 h",0.074
same,"value of [the treated group−the blank group], Mean value","[1]; 1.2 × 10^−7M, 84 h",0.107
same,"value of [the treated group−the blank group], Mean value","[1]; 1.2 × 10^−7M, 108 h",−0.006
same,"value of [the treated group−the blank group], Mean value","[1]; 1.2 × 10^−7M, 132 h",0.034
same,"value of [the treated group−the blank group], Mean value","[1]; 2.5 × 10^−6M, 12 h",0.076
same,"value of [the treated group−the blank group], Mean value","[1]; 2.5 × 10^−6M, 84 h",0.085
same,"value of [the treated group−the blank group], Mean value","[1]; 2.5 × 10^−6M, 108 h",0.024
same,"value of [the treated group−the blank group], Mean value","[1]; 2.5 × 10^−6M, 132 h",−0.007
same,course of the value as time goes by (FIG. 12),HepG2 (liver cancer),increasing
same,"value of the treated group, Mean value","HepG2 (liver cancer); 35.1 uM/ml, 24 h",2.73
same,"value of the treated group, Mean value","HepG2 (liver cancer); 35.1 uM/ml, 48 h",2.604
same,"value of the treated group, Mean value","HepG2 (liver cancer); 35.1 uM/ml, 72 h",2.506
same,"value of the treated group, Mean value","HepG2 (liver cancer); 35.1 uM/ml, 96 h",2.546
same,"value of the treated group, Mean value","HepG2 (liver cancer); 70.2 uM/ml, 24 h",2.71
same,"value of the treated group, Mean value","HepG2 (liver cancer); 70.2 uM/ml, 48 h",2.595
same,"value of the treated group, Mean value","HepG2 (liver cancer); 70.2 uM/ml, 72 h",2.466
same,"value of the treated group, Mean value","HepG2 (liver cancer); 70.2 uM/ml, 96 h",2.389
same,course of the value as time goes by (FIG. 11),A549 (lung cancer),increasing
same,"value of the treated group, Mean value","A549 (lung cancer); 35.1 uM/ml, 24 h",2.438
same,"value of the treated group, Mean value","A549 (lung cancer); 35.1 uM/ml, 48 h",2.753
same,"value of the treated group, Mean value","A549 (lung cancer); 35.1 uM/ml, 72 h",2.6
same,"value of the treated group, Mean value","A549 (lung cancer); 35.1 uM/ml, 96 h",2.934
same,"value of the treated group, Mean value","A549 (lung cancer); 70.2 uM/ml, 24 h",2.488
same,"value of the treated group, Mean value","A549 (lung cancer); 70.2 uM/ml, 48 h",2.911
same,"value of the treated group, Mean value","A549 (lung cancer); 70.2 uM/ml, 72 h",2.691
same,"value of the treated group, Mean value","A549 (lung cancer); 70.2 uM/ml, 96 h",2.98
same,course of the value as time goes by (FIG. 10),TTU-1 (breast cancer),increasing
same,"value of [the treated group−the blank group], Mean value","TTU-1 (breast cancer); 1.2 × 10^−7M, 12 h",0.079
same,"value of [the treated group−the blank group], Mean value","TTU-1 (breast cancer); 1.2 × 10^−7M, 84 h",0.123
same,"value of [the treated group−the blank group], Mean value","TTU-1 (breast cancer); 1.2 × 10^−7M, 108 h",0.012
same,"value of [the treated group−the blank group], Mean value","TTU-1 (breast cancer); 1.2 × 10^−7M, 132 h",0.084
same,"value of [the treated group−the blank group], Mean value","TTU-1 (breast cancer); 2.5 × 10^−6M, 12 h",0.067
same,"value of [the treated group−the blank group], Mean value","TTU-1 (breast cancer); 2.5 × 10^−6M, 108 h",−0.002
same,"value of [the treated group−the blank group], Mean value","TTU-1 (breast cancer); 2.5 × 10^−6M, 132 h",0.035
"O=c1[nH]cc(F)c(=O)[nH]1 [Example 5-FU, 5-FU]","value of the treated group, Mean value","HepG2 (liver cancer); 1,000 ppm, 24 h",2.867
same,"value of the treated group, Mean value","HepG2 (liver cancer); 1,000 ppm, 48 h",1.998
same,"value of the treated group, Mean value","HepG2 (liver cancer); 1,000 ppm, 72 h",1.853
same,"value of the treated group, Mean value","HepG2 (liver cancer); 1,000 ppm, 96 h",0.938
same,"value of the treated group, Mean value","A549 (lung cancer); 1,000 ppm, 24 h",2.298
same,"value of the treated group, Mean value","A549 (lung cancer); 1,000 ppm, 48 h",1.697
same,"value of the treated group, Mean value","A549 (lung cancer); 1,000 ppm, 72 h",0.863
same,"value of the treated group, Mean value","A549 (lung cancer); 1,000 ppm, 96 h",0.42
